This passage reports IC50, inhibition and Activity results from ChEMBL document CHEMBL5113492, “Design, synthesis, and biological evalution of bifunctional inhibitors against Hsp90-HDAC6 interplay” (Eur J Med Chem, 2022).

One data set deals with Histone deacetylase 3 (Homo sapiens, UniProt O15379). As to the kind of experiment: Inhibition of HDAC3 (unknown origin) using fluorogenic substrate incubated for 30 mins by fluorescence plate reader.
Data set [1] has as its target T1, Heat shock protein HSP90 (Homo sapiens) (UniProt P07900+P08238). The experiment in a line: Inhibition of HSP90 in human NCI-H1975 cells assessed as downregulation of EGFR expression at 0.05 to 2 uM incubated for 24 hrs by western blot analysis. The conditions noted are these: dose 0.05-2 µM, DDE = dose-dependent effect. The format is cell-based.
The target of data set [2] is T1, Heat shock protein HSP90 (Homo sapiens). As to the kind of experiment: Inhibition of HSP90 in human NCI-H1975 cells assessed as downregulation of Akt expression at 0.05 to 2 uM incubated for 24 hrs by western blot analysis. The format is cell-based. The note with it: dose 0.05-2 µM, DDE = dose-dependent effect. Background: In western blotting, separated proteins are transferred to a membrane and probed.

Data set [3] has as its target T2, Protein deacetylase HDAC6 (Homo sapiens) (UniProt Q9UBN7).
T2 sequence (whole entry): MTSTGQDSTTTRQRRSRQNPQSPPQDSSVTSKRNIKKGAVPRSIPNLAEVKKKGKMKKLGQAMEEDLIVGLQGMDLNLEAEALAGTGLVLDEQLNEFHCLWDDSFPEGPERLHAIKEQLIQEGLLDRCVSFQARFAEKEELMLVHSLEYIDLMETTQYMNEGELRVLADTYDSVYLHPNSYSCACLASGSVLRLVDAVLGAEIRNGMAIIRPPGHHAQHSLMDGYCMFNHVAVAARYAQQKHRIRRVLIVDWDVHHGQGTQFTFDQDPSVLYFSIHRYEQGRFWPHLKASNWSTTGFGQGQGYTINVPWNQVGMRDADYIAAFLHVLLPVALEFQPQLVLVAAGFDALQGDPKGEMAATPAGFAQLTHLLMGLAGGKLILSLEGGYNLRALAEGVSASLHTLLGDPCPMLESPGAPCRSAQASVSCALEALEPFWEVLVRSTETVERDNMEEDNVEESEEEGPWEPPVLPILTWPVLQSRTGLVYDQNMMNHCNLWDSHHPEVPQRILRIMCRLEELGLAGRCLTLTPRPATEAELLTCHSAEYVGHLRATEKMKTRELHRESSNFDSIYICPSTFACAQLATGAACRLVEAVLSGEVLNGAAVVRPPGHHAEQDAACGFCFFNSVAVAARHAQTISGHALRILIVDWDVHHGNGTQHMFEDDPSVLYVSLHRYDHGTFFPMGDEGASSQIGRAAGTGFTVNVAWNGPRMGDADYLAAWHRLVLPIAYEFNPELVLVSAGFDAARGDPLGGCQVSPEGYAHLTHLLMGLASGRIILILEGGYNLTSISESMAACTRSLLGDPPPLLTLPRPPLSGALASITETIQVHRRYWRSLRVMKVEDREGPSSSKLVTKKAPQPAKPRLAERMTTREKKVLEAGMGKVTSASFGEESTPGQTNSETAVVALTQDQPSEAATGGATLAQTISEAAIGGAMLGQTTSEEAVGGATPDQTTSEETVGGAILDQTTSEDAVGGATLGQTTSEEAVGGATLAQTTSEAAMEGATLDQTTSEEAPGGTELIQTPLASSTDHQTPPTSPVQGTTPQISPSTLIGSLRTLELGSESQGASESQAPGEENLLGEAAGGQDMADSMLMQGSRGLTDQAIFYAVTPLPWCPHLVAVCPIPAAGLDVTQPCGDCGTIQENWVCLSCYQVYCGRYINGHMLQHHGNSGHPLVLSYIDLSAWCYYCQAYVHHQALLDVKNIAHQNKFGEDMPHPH
As to the kind of experiment: Inhibition of HDAC6 in human NCI-H1975 cells assessed as downregulation of HDAC6 expression at 0.05 to 2 uM incubated for 24 hrs by western blot analysis. The format is cell-based. The conditions noted are these: dose 0.05-2 µM, DDE = dose-dependent effect.

In data set [4] the target is T1, Heat shock protein HSP90 (Homo sapiens). As to the kind of experiment: Inhibition of HSP90 in human NCI-H1975 cells assessed as downregulation of EGFR expression at 2 uM incubated for 24 hrs by western blot analysis. Format: cell-based.
Data set [5] has the same target. The experiment in a line: Inhibition of HSP90 in human NCI-H1975 cells assessed as downregulation of CDK-4 expression at 2 uM incubated for 24 hrs by western blot analysis. Format: cell-based.
In data set [6] the target is T2, Protein deacetylase HDAC6 (Homo sapiens). As to the kind of experiment: Inhibition of HDAC6 in human NCI-H1975 cells assessed as increase in acetylation of HSP90-Lys 294 residue at 2 uM incubated for 24 hrs by western blot analysis. Format: cell-based.
Data set [7] shares this target. The experiment in a line: Inhibition of HDAC6 in human NCI-H1975 cells assessed as increase in acetylation of alpha tubulin at 1 uM incubated for 24 hrs by DAPI staining based immunofluorescence microscopy. Format: cell-based.
The next data set relates to NCI-H1975. The experiment in a line: Antitumor activity against NSG mouse xenografted with human NCI-H1975 cells assessed as reduction on tumor growth at 50 mg/kg,ip measured after 2 weeks. The format is functional, organism-based.
In another data set the test system is Mus musculus. As to the kind of experiment: In vivo inhibition of HSP90 in human NCI-H1975 cells xenografted with NSG mouse assessed as downregulation of EGFR expression at 25 mg/kg,ip measured after 6 weeks by immunohistochemistry analysis. Format: functional, organism-based. (In general: In xenograft studies the graft and the host belong to different species.)

The nature of data set [8]: Toxicity in NSG mouse xenografted with human NCI-H1975 cells assessed as histological abnormalities in ocular region at 50 mg/kg,ip measured after 6 weeks by H and E staining based assay. The format is organism-based. The conditions noted are these: in vivo, 1008 h.
The nature of data set [9]: Toxicity in NSG mouse xenografted with human NCI-H1975 cells assessed as abnormal behavior at 25 mg/kg,ip measured after 6 weeks. The format is organism-based. The conditions noted are these: in vivo, 1008 h.

Active and inactive are the calls of the source. The calls are words filed in the database; no cut-off is given here.

Chain of Histone deacetylase 3 (O15379 whole entry): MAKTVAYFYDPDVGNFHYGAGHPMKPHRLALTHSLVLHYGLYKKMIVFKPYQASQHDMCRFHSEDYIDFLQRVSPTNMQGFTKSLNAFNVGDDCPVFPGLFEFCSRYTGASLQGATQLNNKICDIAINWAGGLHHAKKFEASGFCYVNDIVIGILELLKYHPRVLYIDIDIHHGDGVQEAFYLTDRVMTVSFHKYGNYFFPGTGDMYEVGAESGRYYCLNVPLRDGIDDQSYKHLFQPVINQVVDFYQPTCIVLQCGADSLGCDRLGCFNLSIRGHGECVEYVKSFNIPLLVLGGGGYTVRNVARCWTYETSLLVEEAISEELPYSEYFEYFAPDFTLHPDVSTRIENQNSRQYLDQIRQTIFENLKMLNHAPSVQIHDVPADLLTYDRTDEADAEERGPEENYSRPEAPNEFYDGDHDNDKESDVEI

Regarding `CC(C)c1cc(C(=O)N(C)Cc2ccc(C(=O)NO)cc2)c(O)cc1O`, at Histone deacetylase 3, the half-inhibitory concentration (IC50) (as a rule, the concentration needed to halve the response being measured) was found to be 1.54 µM. Also, the inhibition result in data set [1], in data set [2] and in data set [3] was “Dde” each time. Further, the inhibition result (in data set [4]; in data set [5]; in data set [6]; in [7]; in the data set on Mus musculus) was “Active” throughout. Further, in the data set on NCI-H1975, the outcome was Active. For the same molecule, the Activity entry in data set [8] and in data set [9] was “Non-Toxic” each time.
